Experimental findings from patent US12673933B2, “Aminopyrazine compounds as HPK1 inhibitor and the use thereof” (BEIGENE, LTD., priority 2019, dated 2026) are described below.

Each structure is given as a SMILES string.

The experiment concerns the target T1, HPK1 kinase (aa1-346, Life Technologies) (Homo sapiens, UniProt Q92918).
T1 construct: HPK1 kinase (aa1-346, Life Technologies); purchased Life Technologies
T1 sequence (Q92918 1-346): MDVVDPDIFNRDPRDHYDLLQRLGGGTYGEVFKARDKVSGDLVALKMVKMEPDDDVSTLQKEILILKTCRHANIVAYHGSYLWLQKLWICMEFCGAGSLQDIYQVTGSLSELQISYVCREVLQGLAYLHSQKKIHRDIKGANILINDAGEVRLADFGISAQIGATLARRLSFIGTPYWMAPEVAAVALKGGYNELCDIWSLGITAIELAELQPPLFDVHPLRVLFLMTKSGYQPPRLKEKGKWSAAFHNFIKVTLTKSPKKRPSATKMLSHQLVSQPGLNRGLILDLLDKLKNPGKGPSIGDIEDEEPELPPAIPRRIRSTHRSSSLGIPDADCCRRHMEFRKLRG
Description: HPK Kinase Activity Assay at 1 mM ATP (TR-FRET). It is filed as biochemical. The settings on record: HPK1 kinase 40 nM, 0.5 μM STK1 substrate, read-out: Enzymatic activity IC50. The method, boiled down: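 HPK1 (aa1-346, 40 nM) was preincubated 60 min at room temperature with compound (0–10 μM) in pH 7.0 HEPES/MgCl2 buffer. Reaction ran 120 min at room temperature with 1 mM ATP and 0.5 μM STK1 substrate. Phosphorylation was read as the TR-FRET 665/620 nm ratio, with IC50 from a four-parameter logistic fit.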
Background: In TR-FRET formats the signal depends on donor and acceptor labels being close together.
Broadly, the IC50 is the concentration that inhibits the measured activity by half. Take `Cc1cc(-c2cnc(N)c(Oc3cnn(C(C)C)c3)n2)cc2c1CCN(C)C2` [Example 272, 5-(2,5-dimethyl-1,2,3,4-tetrahydroisoquinolin-7-yl)-3-(1-isopropyl-1H-pyrazol-4-yloxy)pyrazin-2-amine]: the IC50 turned out to be 8.4 nM.

Consider `CCn1cc(Oc2nc(-c3cc4c(c(OC)c3)CCN(C)C4)cnc2N)cn1` [Example 274, 3-(1-ethyl-1H-pyrazol-4-yloxy)-5-(5-methoxy-2-methyl-1,2,3,4-tetrahydroisoquinolin-7-yl)pyrazin-2-amine], for which the IC50 is 24 nM.

Turning to `CCn1cc(Oc2nc(-c3cc4c(c(NC)c3)CCN(C)C4)cnc2N)cn1` [Example 275, 7-(5-amino-6-(1-ethyl-1H-pyrazol-4-yloxy)pyrazin-2-yl)-N,2-dimethyl-1,2,3,4-tetrahydroisoquinolin-5-amine], the IC50 turned out to be 14 nM.

Consider `COCCn1cc(Oc2nc(-c3cc(C)c4c(c3)CN(C)CC4)cnc2N)cn1` [Example 276, 5-(2,5-dimethyl-1,2,3,4-tetrahydroisoquinolin-7-yl)-3-((1-(2-methoxyethyl)-1H-pyrazol-4-yl)oxy)pyrazin-2-amine], for which the IC50 turned out to be 24 nM.

In the case of `Cc1cc(-c2cnc(N)c(Oc3cnn(CCC#N)c3)n2)cc2c1CCN(C)C2` [Example 277, 3-(4-((3-amino-6-(2,5-dimethyl-1,2,3,4-tetrahydroisoquinolin-7-yl)pyrazin-2-yl)oxy)-1H-pyrazol-1-yl)propanenitrile], the IC50 amounted to 6.5 nM.

As for `CCOCCn1cc(Oc2nc(-c3cc(C)c4c(c3)CN(C)CC4)cnc2N)cn1` [Example 278, 5-(2,5-dimethyl-1,2,3,4-tetrahydroisoquinolin-7-yl)-3-((1-(2-ethoxyethyl)-1H-pyrazol-4-yl)oxy)pyrazin-2-amine], the IC50 was 15 nM.

Consider `CNCCN(C)C(=O)c1cnn(-c2nc(-c3cc(C)c4c(c3)CN(C)CC4)cnc2N)c1` [Example 279, 1-(3-amino-6-(2,5-dimethyl-1,2,3,4-tetrahydroisoquinolin-7-yl)pyrazin-2-yl)-N-methyl-N-(2-(methylamino)ethyl)-1H-pyrazole-4-carboxamide], for which the IC50 came to 19 nM.

As to `Cc1cc(-c2cnc(N)c(-n3cc(C(=O)N4CCC(F)(F)C4)cn3)n2)cc2c1CCN(C)C2` [Example 281, (1-(3-amino-6-(2,5-dimethyl-1,2,3,4-tetrahydroisoquinolin-7-yl)pyrazin-2-yl)-1H pyrazol-4-yl)(3,3-difluoropyrrolidin-1-yl)methanone], the IC50 turned out to be 56 nM.

With `Cc1cc(-c2cnc(N)c(OCc3ccnc(N)c3O[C@H]3CCOC3)n2)cc2c1CCN(C)C2` [Example 282, (S)-3-((2-amino-3-((tetrahydrofuran-3-yl)oxy)pyridin-4-yl)methoxy)-5-(2,5-dimethyl-1,2,3,4-tetrahydroisoquinolin-7-yl)pyrazin-2-amine], the IC50 came out at 6.6 nM.

On to `COCCN(C)C(=O)c1cnn(-c2nc(-c3cc(C)c4c(c3)CN(C)CC4)cnc2N)c1` [Example 283, 1-(3-amino-6-(2,5-dimethyl-1,2,3,4-tetrahydroisoquinolin-7-yl)pyrazin-2-yl)-N-(2-methoxyethyl)-N-methyl-1H-pyrazole-4-carboxamide], for which the IC50 amounted to 6.3 nM.

Regarding `Cc1cc(-c2cnc(N)c(-n3cc(C(=O)N4CCN(C)CC4)cn3)n2)cc2c1CCN(C)C2` [Example 284, (1-(3-amino-6-(2,5-dimethyl-1,2,3,4-tetrahydroisoquinolin-7-yl)pyrazin-2-yl)-1H-pyrazol-4-yl)(4-methylpiperazin-1-yl)methanone], the IC50 was determined as 38 nM.

On to `Cc1cc(-c2cnc(N)c(-n3cc(C(=O)NCCN4CCCC4)cn3)n2)cc2c1CCN(C)C2` [Example 285, 1-(3-amino-6-(2,5-dimethyl-1,2,3,4-tetrahydroisoquinolin-7-yl)pyrazin-2-yl)-N-(2-(pyrrolidin-1-yl)ethyl)-1H-pyrazole-4-carboxamide], for which the IC50 stood at 14 nM.

For `Cc1cc(-c2cnc(N)c(-n3cc(C(=O)N(C)c4ccccc4Cl)cn3)n2)cc2c1CCN(C)C2` [Example 286, 1-(3-amino-6-(2,5-dimethyl-1,2,3,4-tetrahydroisoquinolin-7-yl)pyrazin-2-yl)-N-(2-chlorophenyl)-N-methyl-1H-pyrazole-4-carboxamide], the half-maximal inhibitory concentration (IC50) is 3.6 nM.

In the case of `Cc1cc(-c2cnc(N)c(C(=O)Nc3ccncc3)n2)cc2c1CCN(C)C2` [Example 287, 3-amino-6-(2,5-dimethyl-1,2,3,4-tetrahydroisoquinolin-7-yl)-N-(pyridin-4-yl)pyrazine-2-carboxamide], the half-inhibitory concentration (IC50) turned out to be 25 nM.

On to `Cc1cc(-c2cnc(N)c(Oc3cnn(C(C)c4cccnc4)c3)n2)cc2c1CCN(C)C2` (stereo not shown) [Example 288, 5-(2,5-dimethyl-1,2,3,4-tetrahydroisoquinolin-7-yl)-3-(1-(1-(pyridin-3-yl)ethyl)-1H-pyrazol-4-yloxy)pyrazin-2-amine], for which the half-maximal inhibitory concentration (IC50) is 17 nM.

Regarding `CNc1cc(-c2cnc(N)c(-n3cc(C(=O)N(C)C)cn3)n2)cc2c1CCN(C)C2` [Example 289, 1-(3-amino-6-(2-methyl-5-(methylamino)-1,2,3,4-tetrahydroisoquinolin-7-yl)pyrazin-2-yl)-N,N-dimethyl-1H-pyrazole-4-carboxamide], the IC50 is 9.7 nM.

With `CN1CCc2c(cc(-c3cnc(N)c(-n4cc(C(=O)N(C)C)cn4)n3)cc2NC2CC2)C1` [Example 290, 1-(3-amino-6-(5-(cyclopropylamino)-2-methyl-1,2,3,4-tetrahydroisoquinolin-7-yl)pyrazin-2-yl)-N,N-dimethyl-1H-pyrazole-4-carboxamide], the IC50 came to 16 nM.

As for `CCOCCN(C)C(=O)c1cnn(-c2nc(-c3cc(C)c4c(c3)CN(C)CC4)cnc2N)c1` [Example 292, 1-(3-amino-6-(2,5-dimethyl-1,2,3,4-tetrahydroisoquinolin-7-yl)pyrazin-2-yl)-N-(2-ethoxyethyl)-N-methyl-1H-pyrazole-4-carboxamide], the IC50 was 5.3 nM.

As for `Cc1cc(-c2cnc(N)c(Oc3cnn(CC4CCOCC4)c3)n2)cc2c1CCN(C)C2` [Example 293, 5-(2,5-dimethyl-1,2,3,4-tetrahydroisoquinolin-7-yl)-3-(1-((tetrahydro-2H-pyran-4-yl)methyl)-1H-pyrazol-4-yloxy)pyrazin-2-amine], the IC50 is 37 nM.

Take `CCS(=O)(=O)N1CC(n2cc(Oc3nc(-c4cc(C)c5c(c4)CN(C)CC5)cnc3N)cn2)C1` [Example 295, 5-(2,5-dimethyl-1,2,3,4-tetrahydroisoquinolin-7-yl)-3-(1-(1-(ethylsulfonyl)azetidin-3-yl)-1H-pyrazol-4-yloxy)pyrazin-2-amine]: the IC50 came out at 36 nM.

For the compound `Cc1cc(-c2cnc(N)c(Oc3cnn(C4CN(S(=O)(=O)c5ccccc5)C4)c3)n2)cc2c1CCN(C)C2` [Example 296, 5-(2,5-dimethyl-1,2,3,4-tetrahydroisoquinolin-7-yl)-3-(1-(1-(phenylsulfonyl)azetidin-3-yl)-1H-pyrazol-4-yloxy)pyrazin-2-amine], the IC50 was found to be 67 nM.

Take `Cc1cc(-c2cnc(N)c(-n3cc(C(=O)NCC4CC4)cn3)n2)cc2c1CCN(C)C2` [Example 297, 1-(3-amino-6-(2,5-dimethyl-1,2,3,4-tetrahydroisoquinolin-7-yl)pyrazin-2-yl)-N-(cyclopropylmethyl)-1H-pyrazole-4-carboxamide]: the IC50 turned out to be 6.6 nM.
